Patent US11999720B2, “Pyrazolylacylpyrazoline compounds and method for treating pain” (THE TRUSTEES OF INDIANA UNIVERSITY, priority 2018, dated 2024)
Entries after “also recorded” stand apart in the source; their conditions may differ. Like-named read-outs stand apart in the source and are kept apart here.

What was measured:
CaVα1CaVβ3 interaction = target: T1, CaVα1CaVβ3 interaction (Rattus norvegicus, UniProt P54287); test: fluorescence polarization assay, inhibition constant; format: binding; settings: for Ki: fluorescence polarization assay
T1 construct: made in house; host or cells: E. coli BL21(DE3)
T1 sequence (P54287 whole entry): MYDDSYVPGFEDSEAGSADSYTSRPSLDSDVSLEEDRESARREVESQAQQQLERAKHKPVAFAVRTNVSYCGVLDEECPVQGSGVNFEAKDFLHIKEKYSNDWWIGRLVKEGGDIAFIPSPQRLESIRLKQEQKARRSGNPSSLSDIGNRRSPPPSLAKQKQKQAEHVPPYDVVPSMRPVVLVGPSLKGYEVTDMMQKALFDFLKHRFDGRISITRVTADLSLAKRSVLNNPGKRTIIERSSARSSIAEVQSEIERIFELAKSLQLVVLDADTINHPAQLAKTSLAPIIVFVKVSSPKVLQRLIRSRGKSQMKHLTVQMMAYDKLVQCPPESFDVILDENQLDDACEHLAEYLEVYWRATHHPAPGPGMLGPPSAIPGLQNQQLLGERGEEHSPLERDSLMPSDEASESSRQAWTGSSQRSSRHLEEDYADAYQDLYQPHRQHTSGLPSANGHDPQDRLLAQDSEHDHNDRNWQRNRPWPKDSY
Experimental: The plasmid of pET28a-CaV2.2β3 subunit was transformed into competent E. Coli BL21(DE3) strain. Culture was grown in LB medium at 37° C. to an OD600 of approximately 0.6 and then induced with 0.5 mM IPTG at 16° C. for 16 h. Cells were collected by centrifugation and lysed by microfluidizer in lysis buffer (phosphate buffer, pH 7.6, 2 mM DTT). The His-CaVβ3 protein was purified at 4° C. using Ni-IMAC chromatography (His-Trap HP, GE Healthcare) and eluted with 500 mM imidazole in lysis buffer with a gradient method. After the fractions consisted of His-CaVβ3 was combined and concentrated, the protein was further purified using size exclusion chromatography (Superdex 200 pg, GE Healthcare) in PBS with 2 mM DTT.
Compound 6 forms a salt bridge interaction with Arg-307 through a benzoic acid moiety. […] Arg-307 was mutated to alanine.

[1] = test system: T2, CaV2.2 channels in HEK-CaV2.2 cells (Rattus norvegicus); test: whole cell patch-clamp, CaV2.2 currents in HEK-CaV2.2 cells; format: cell-based
T2 construct: expressed in transfected cells
T2 sequence (P54287 whole entry): as above
Experimental: The G-V curves are shown.
HEK-CaV2.2 cells were pretreated with various concentrations of compound 14 for 48 hours. CaV2.2 currents were acquired during 20-ms depolarizing pulses, and the current densities were calculated as a ratio of the peak current amplitude and each cell capacitance (0.1 μM, n=6; 1 μM, n=7; 10 μM, n=8; 50 μM, n=12). The line is the fit of the data to the four-parameter logistic function.
EK-CaV2.2 cells were pretreated with the indicated compounds for 48 hours. *** corresponds to […].
FIGS. 8 and 9 show the effects of 2 and 14 on the voltage dependence of activation of CaV2.2 channels in HEK-CaV2.2 cells pretreated with the vehicle or the indicated compounds for 48 hours. […] The gray vertical lines are the error bars (S.E.M.).
FIGS. 10 and 11 show acute effects of DMSO and 14 on the voltage dependence of activation of CaV2.2 channels in HEK-CaV2.2 cells. […] The gray vertical lines are the error bars (S.E.M.). “ns”—stands for not significant.
The whole cell patch-clamp technique was used to record CaV2.2 currents in HEK-CaV2.2 cells and rat DRG neurons. HEK293 cells that stably expressed rat N-type CaV2.2α1B, rat CaVβ3, and rat […] were utilized. Cells were grown in Dulbecco's modified Eagle's medium (DMEM) supplemented with 10% FBS, 50 units penicillin, 50 μg/ml streptomycin, 5 μg/ml blasticidin, 5 μg/ml hydromycin and 25 μg/ml zeozin at 37° C. in a humidified atmosphere of 95% air and 5% CO2. For patch clamp experiments, HEK-CaV2.2 cells were plated on glass coverslips and were cultured for 24-48 h. All animal procedures were performed in accordance to the NIH guide and were approved by the Indiana University School of Medicine Institutional Animal Care and Use Committee. Young adult Sprague Dawley rats were anesthetized (3% isoflurane) and then decapitated. The spinal column was removed, cut open, and dorsal root ganglia were harvested from the Lumbar L4-L6 vertebral levels. The ganglia were incubated in DMEM containing collagenase (1 mg/ml, Worthington: LS04194) and protease (1 mg/ml, Worthington: LS02104) for 30-60 minutes, and DRG neurons were dissociated by triturating in DMEM supplemented with 10% FBS. The isolated DRG neurons were plated on glass coverslips coated with growth factor reduced Matrigel (Thermo Fisher Scientific, Waltham, MA) and were cultured in Eagle's minimum essential medium (Invitrogen, CA) supplemented with 0.2% BSA and 20 ng/ml NGF-2.5S (BD Biosciences, Bedford, MA) at 37° C. in a water-jacketed 5% CO2 incubator overnight for the patch-clamp experiments.

[2] = test system: tibial nerve injury (TNI) model of neuropathic pain; test: tibial nerve injury (TNI) model of neuropathic pain, von Frey withdrawal threshold; format: in vivo, rat
Experimental: Pathogen-free, adult, female Sprague Dawley (weight at testing 150-200 g; Harlan-Sprague-Dawley, Indianapolis, IN) were housed in a climate-controlled room on a 12-hour light/dark cycle and were allowed to have food and water ad libitum. All procedures were approved by the Indiana University Animal Care and Use Committee and conformed to the guidelines of the National Institutes of Health (publication no. 80-23, 1966) for the use of laboratory animals. All behavioral experiments were conducted by experimenters blinded to the treatment conditions and compound identity. The experiments were replicated a minimum of 2 times with independent cohorts of animals.
For in vivo studies, the inventive compounds were freshly prepared saline (0.9%) on the day of the experiment. Morphine sulfate salt (Sigma-Aldrich, St. Louis, MO) was freshly prepared on the day of the experiment in saline. […]
The inventive compounds were assessed with the tibial nerve injury (TNI) model of neuropathic pain 28 days after surgery. Using isoflurane anesthesia (4% induction and 2% maintenance), the right sciatic nerve was isolated under aseptic surgical conditions by blunt dissection of the femoral biceps muscle and the tibial nerve was tightly ligated with 5-0 silk and transected distal to the ligation. Additional 2 to 3 mm of distal nerve stump was removed to prevent reinnervation by the proximal nerve. The overlying muscle and skin was then sutured in 2 separate layers. Sham-injured animals were subjected to all preceding procedures with the exception of ligation and transection. All animals were returned to the housing facility and allowed to survive for 28 d. Mechanical stimuli were applied with 7 filaments, each differing in the bending force delivered (10, 20, 40, 60, 80, 100, and 120 mN), and fitted with a flat tip and fixed diameter of 0.2 mm. The filaments were tested in the order of ascending force, with each filament delivered for 1 second. Withdrawal threshold was determined by sequentially increasing and analyzed with Hill equation was fitted to the function (Origin version 6.0; Microcal Software) relating the percentage of indentations eliciting a withdrawal to the force of indentation.

[3] = pharmacokinetics, plasma concentrations by LC-MS/MS after IV and PO administration; format: in vivo, Kunming mice; settings: Kunming, mouse; for half-life: read-out: elimination half-life (converted); for Cmax: read-out: Cmax peak plasma concentration
Experimental: Plasma concentrations at various time points were determined using liquid chromatography tandem mass spectroscopy (LC-MS/MS). For intravenous (IV) administration, compound 14 was formulated as a solution at a final dose of 1 mg/kg.
For oral gavage (PO) administration, compound 14 was formulated as a solution at a final dose of 10 mg/kg. Plasma concentrations at various time points were determined using LC-MS/MS.
PK profiles of compound 14 after intravenous and oral administration was performed in Kunming mice. Plasma concentrations were determined by liquid chromatography tandem mass spectroscopy. Summary of PK properties and plasma concentration measured 1 hour after intravenous or oral administration of 1 or 10 mg/kg compound 14.

SMILES: COc1ccc(C2=NN(C(=O)CCC(=O)O)C(c3cn(-c4ccccc4)nc3-c3ccc(C)cc3)C2)cc1 (centres unmarked) [Compound 1]
- Ki (CaVα1CaVβ3 interaction): 6.7 ± 0.3 µM

SMILES: Cc1ccc(-c2nn(-c3ccccc3)cc2C2CC(c3ccc(-c4ccccn4)cc3)=NN2C(=O)CCC(=O)O)cc1 (centres unmarked) [Compound 4, 4-oxo-4-(1′-phenyl-5-(4-(pyridin-2-yl)phenyl)-3′-(p-tolyl)-3,4-dihydro-1′H,2H-[3,4′-bipyrazol]-2-yl)butanoic acid]
- Ki (CaVα1CaVβ3 interaction): 2.2 ± 0.3 µM

SMILES: COC(=O)c1cccc(C(=O)N2N=C(c3ccc(OC)cc3)CC2c2cn(-c3ccccc3)nc2-c2ccc(C)cc2)c1 (centres unmarked) [Compound 7, methyl 3-(5-(4-methoxyphenyl)-1′-phenyl-3′-(p-tolyl)-3,4-dihydro-1′H,2H-[3,4′-bipyrazole]-2-carbonyl)benzoate]
- inhibition of the CaVα1CaVβ3 interaction (CaVα1CaVβ3 interaction; removal of the charge of the benzoic acid moiety): complete loss of inhibition

SMILES: COc1ccc(C2=NN(C(=O)c3cccc(C(=O)O)c3)C(c3cn(-c4ccccc4)nc3-c3ccc(Cl)cc3)C2)cc1 (centres unmarked) [Compound 8, 3-(3′-(4-chlorophenyl)-5-(4-methoxyphenyl)-1′-phenyl-3,4-dihydro-1′H,2H-[3,4′-bipyrazole]-2-carbonyl)benzoic acid]
- Ki (CaVα1CaVβ3 interaction): 1.2 ± 0.1 µM

SMILES: COc1ccc(C2=NN(C(=O)c3cccc(C(=O)O)c3)C(c3cn(-c4ccc(OC)cc4)nc3-c3ccc(C)cc3)C2)cc1 (centres unmarked) [Compound 10, 3-(1′,5-bis(4-methoxyphenyl)-3′-(p-tolyl)-3,4-dihydro-1′H,2H-[3,4′-bipyrazole]-2-carbonyl)benzoic acid]
- Ki (CaVα1CaVβ3 interaction): 3.7 ± 0.2 µM

SMILES: COc1ccc(C2=NN(c3cccc(C(=O)O)c3)C(c3cn(-c4ccccc4)nc3-c3ccc(C)cc3)C2)cc1 (centres unmarked) [Compound 11, 3-(5-(4-methoxyphenyl)-1′-phenyl-3′-(p-tolyl)-3,4-dihydro-1′H,2H-[3,4′-bipyrazol]-2-yl)benzoic acid]
- Ki (CaVα1CaVβ3 interaction): 3.9 ± 0.9 µM

SMILES: COc1ccc(C2=NN(C(=O)c3cccc(C(=O)O)c3)C(c3cn(-c4cccnc4)nc3-c3ccc(C)cc3)C2)cc1 (centres unmarked) [Compound 12, 3-(5-(4-methoxyphenyl)-1′-(pyridin-3-yl)-3′-(p-tolyl)-3,4-dihydro-1′H,2H-[3,4′-bipyrazole]-2-carbonyl)benzoic acid]
- Ki (CaVα1CaVβ3 interaction): 5 ± 1.9 µM

SMILES: COc1ccc(C2=NN(C(=O)c3cccc(-c4nnn[nH]4)c3)C(c3cn(-c4ccccc4)nc3-c3ccc(C)cc3)C2)cc1 (centres unmarked) [Compound 14, (3-(1H-tetrazol-5-yl)phenyl)(5-(4-methoxyphenyl)-1′-phenyl-3′-(p-tolyl)-3,4-dihydro-1′H,2H-[3,4′-bipyrazol]-2-yl)methanone]
- steady-state inactivation V0.5, inact ([1]; 50 μM, pretreated 48 hours): −52.9±1.3 mV
- IC50 ([1]; pretreated 48 hours, current densities, four-parameter logistic fit, read-out: apparent IC50 for inhibition of CaV2.2 currents): 31 µM
- mean half-activation potential V0.5, act ([1]; pretreated 48 hours, DMSO 8.7±1.1): 16.5±1.1 mV
- reversal of mechanical hypersensitivity (PWT) ([2]; 0.1 mg/kg single bolus, 1 and 24 h post-dosing, 4 weeks after TNI): significantly reversed mechanical hypersensitivity at both 1 and 24 h post-dosing; also recorded: significantly increased PWTs at both 1 and 24 hours post-injection
- half-life ([3]; IV, 1 mg/kg): 17.4 min
- AUC(0-t) ([3]; iv, 1 mg/kg): 58 ng·h/mL
- Tmax ([3]; iv, 1 mg/kg): 4.98 min
- Cmax ([3]; iv, 1 mg/kg): 181 ng/mL
- AUC(0-t) ([3]; oral gavage (PO), 10 mg/kg): 636 ng·h/mL
- Tmax ([3]; oral gavage (PO), 10 mg/kg): 60 min
- Cmax ([3]; oral gavage (PO), 10 mg/kg): 165 ng/mL
- half-life ([3]; oral gavage (PO), 10 mg/kg): 119 min
- Ki (CaVα1CaVβ3 interaction): 2 ± 0.2 µM

SMILES: COc1ccc(C2=NN(C(=O)c3cccc(C(=O)O)c3)C(c3cn(-c4ccccc4)nc3-c3ccc(-c4ncc[nH]4)cc3)C2)cc1 (centres unmarked) [Compound 15, 3-(3′-(4-(1H-imidazol-2-yl)phenyl)-5-(4-methoxyphenyl)-1′-phenyl-3,4-dihydro-1′H,2H-[3,4′-bipyrazole]-2-carbonyl)benzoic acid]
- half-activation voltage V0.5, act after acute treatment ([1]; 50 μM, 5 min incubation, before 6.4±1.9): 11.4±1.7 mV
- density of CaV2.2 currents ([1]; 50 μM, pretreated 48 hours, depolarizing pulses to 0 mV from holding potential −80 mV, DMSO −74.8±7.0): −11.1±2.4 pA/pF

SMILES: CN1CC[C@]23c4c5ccc(O)c4O[C@H]2[C@@H](O)C=C[C@H]3[C@H]1C5.O=S(=O)(O)O [morphine, Morphine sulfate salt, reference compound]
- withdrawal threshold to von Frey stimulation ([2]; 5 mg/kg systemic, 28 days after TNI): 32±2.6 mN
